Several values for one entry are separate records, joined by “and”; a condition that tells them apart may be missing. Equal values may be shown once. Activity calls are given as the source filed them. The calls are words filed in the database; no cut-off is given here. Positions of bridges follow the written chain, without caps; N, C: chain ends. Residues, ends and D or L forms follow the SMILES beside them.
Tests used:
U-87 MG [1] = assay: Induction of morphological changes in human U-87 MG cells assessed as membrane blebbing at 4.4 uM measured after 72 hrs by phase contrast microscopy; assay type: functional, cell-based; settings: U-87MG ATCC
U-87 MG [2] = assay: Cytotoxicity against human U-87 MG cells by sulforhodamine B assay; assay type: functional, cell-based, U-87MG ATCC
SH-SY5Y [3] = assay: Cytotoxicity against human SH-SY5Y cells using best fit nonlinear regression analysis; assay type: functional, cell-based
U-87 MG [4] = assay: Induction of morphological changes in human U-87 MG cells assessed as membrane blebbing at 4.4 uM cotreated with 352 uM of TMZ measured after 72 hrs by phase contrast microscopy; assay type: functional, cell-based; settings: U-87MG ATCC
U-87 MG [5] = assay: Induction of morphological changes in human U-87 MG cells assessed as appearance of shrunken cell bodies at 4.4 uM measured after 72 hrs by phase contrast microscopy; assay type: functional, cell-based; settings: U-87MG ATCC
U-87 MG [6] = assay: Cytotoxicity against human U-87 MG cells assessed as cell viability at 5 uM upto 72 hrs by MTT assay; assay type: functional, U-87MG ATCC; settings: time hrs <=72, read-out: Activity
U-251 = assay: Cytotoxicity against human U-251 cells by sulforhodamine B assay; assay type: functional, cell-based
SH-SY5Y [7] = assay: Cytotoxicity against human SH-SY5Y cells assessed as cell viability using raw interpretation method; assay type: functional, cell-based
SH-SY5Y [8] = assay: Cytotoxicity against human SH-SY5Y cells assessed as TMZ-induced cell death at 2.15 uM cotreated with 108.1 uM of TMZ incubated upto 72 hrs by MTT assay; assay type: functional; settings: time hrs <=72
U-87 MG [9] = assay: Cytotoxicity against human U-87 MG cells assessed as TMZ-induced cell death at 4.4 uM cotreated with 352 uM of TMZ measured after 72 hrs by phase contrast microscopy; assay type: functional, cell-based; settings: U-87MG ATCC
U-87 MG [10] = assay: Induction of morphological changes in human U-87 MG cells assessed as cell death at 4.4 uM cotreated with 352 uM of TMZ measured after 72 hrs by phase contrast microscopy; assay type: functional, cell-based; settings: U-87MG ATCC
U-87 MG [11] = assay: Cytotoxicity against human U-87 MG cells assessed as TMZ-induced cell death at 4.5 uM cotreated with 352 to 1408 uM of TMZ incubated upto 72 hrs by MTT assay; assay type: functional, cell-based; settings: U-87MG ATCC, time hrs <=72
SH-SY5Y [12] = assay: Cytotoxicity against human SH-SY5Y cells assessed as cell viability at 5 uM upto 72 hrs by MTT assay; assay type: functional; settings: time hrs <=72, read-out: Activity
SH-SY5Y [13] = assay: Cytotoxicity against human SH-SY5Y cells assessed as TMZ-induced cell death at 0.27 to 2.15 uM cotreated with 216.2 uM of TMZ incubated upto 72 hrs by MTT assay; assay type: functional; settings: dose 0.27-2.15 µM, time hrs <=72
SH-SY5Y [14] = assay: Cytotoxicity against human SH-SY5Y cells assessed as TMZ-induced cell death at 2.15 uM cotreated with 54.05 uM of TMZ incubated upto 72 hrs by MTT assay; assay type: functional; settings: time hrs <=72
U-87 MG [15] = assay: Cytotoxicity against human U-87 MG cells assessed as cell viability using raw interpretation method; assay type: functional, cell-based, U-87MG ATCC
U-87 MG [16] = assay: Effect on cell morphology in human U-87 MG cells at 4.4 uM cotreated with 352 uM of TMZ measured after 72 hrs by phase contrast microscopy; assay type: functional, cell-based; settings: U-87MG ATCC
U-87 MG [17] = assay: Induction of morphological changes in human U-87 MG cells assessed as swollen nuclei at 4.4 uM cotreated with 352 uM of TMZ measured after 72 hrs by phase contrast microscopy; assay type: functional, cell-based; settings: U-87MG ATCC
U-87 MG [18] = assay: Cytotoxicity against human U-87 MG cells using best fit nonlinear regression analysis; assay type: functional, cell-based, U-87MG ATCC
U-87 MG [19] = assay: Cytotoxicity against human U-87 MG cells assessed as cell viability at 100 uM incubated upto 72 hrs by MTT assay; assay type: functional, U-87MG ATCC; settings: time hrs <=72, read-out: Activity
U-87 MG [20] = assay: Induction of morphological changes in human U-87 MG cells assessed as appearance of undergoing apoptosis at 1408 uM measured after 72 hrs by phase contrast microscopy; assay type: functional, U-87MG ATCC
U-87 MG [21] = assay: Induction of morphological changes in human U-87 MG cells assessed as appearance of shrunken cell bodies at 1408 uM measured after 72 hrs by phase contrast microscopy; assay type: functional, U-87MG ATCC
SH-SY5Y [22] = assay: Cytotoxicity against human SH-SY5Y cells assessed as cell viability at 2000 uM incubated upto 72 hrs by MTT assay; assay type: functional; settings: time hrs <=72, read-out: Activity
U-87 MG [23] = assay: Cytotoxicity against human U-87 MG cells assessed as cell viability at 10000 uM incubated upto 72 hrs by MTT assay; assay type: functional, U-87MG ATCC; settings: time hrs <=72, read-out: Activity
U-87 MG [24] = assay: Cytotoxicity against human U-87 MG cells assessed as cell viability at 2000 uM incubated upto 72 hrs by MTT assay; assay type: functional, U-87MG ATCC; settings: time hrs <=72, read-out: Activity
U-87 MG [25] = assay: Cytotoxicity against human U-87 MG cells assessed as cell death at 352 uM incubated upto 72 hrs by MTT assay; assay type: functional, U-87MG ATCC; settings: time hrs <=72
SH-SY5Y [26] = assay: Cytotoxicity against human SH-SY5Y cells assessed as cell viability at 100 uM incubated upto 72 hrs by MTT assay; assay type: functional; settings: time hrs <=72, read-out: Activity
SH-SY5Y [27] = assay: Cytotoxicity against human SH-SY5Y cells assessed as cell viability at 500 uM incubated upto 72 hrs by MTT assay; assay type: functional; settings: time hrs <=72, read-out: Activity
U-87 MG [28] = assay: Induction of morphological changes in human U-87 MG cells assessed as membrane blebbing at 1408 uM measured after 72 hrs by phase contrast microscopy; assay type: functional, U-87MG ATCC

**Q.** Which Activity (U-87 MG [1]) does the source give for `CC[C@H](C)[C@@H]1NC(=O)[C@H](C)NC(=O)[C@H](CO)NC(=O)[C@H](CO)NC(=O)[C@H]([C@@H](C)CC)NC(=O)[C@@H]2CSSC[C@@H]3NC(=O)[C@H](C(C)C)NC(=O)[C@H](CCCCN)NC(=O)[C@H](CO)NC(=O)[C@H](CCCCN)NC(=O)[C@@H]4CSSC[C@H](NC(=O)[C@H](CO)NC(=O)[C@H](CCC(=O)O)NC(=O)CNC(=O)[C@H](CSSC[C@H](NC(=O)CNC1=O)C(=O)N[C@@H](CO)C(=O)N4)NC(=O)[C@@H]1CCCN1C(=O)[C@H]([C@@H](C)CC)NC(=O)CNC(=O)[C@H](CC(N)=O)NC(=O)[C@H](CCCNC(=N)N)NC(=O)[C@H](Cc1ccc(O)cc1)NC3=O)C(=O)N[C@@H](C(C)C)C(=O)N[C@@H](Cc1c[nH]c3ccccc13)C(=O)N[C@@H]([C@@H](C)CC)C(=O)N1CCC[C@H]1C(=O)N2` (cyclo(AIGCSCKSKVCYRNGIPCGESCVWIPCISS); disulfide 4-18, 6-22, 11-27) here?
**A.** The Activity was “Active”.

**Q.** What about the IC50 (U-87 MG [2]) of the same molecule?
**A.** The IC50 was 0.45 µM.

**Q.** What about the IC50 (SH-SY5Y [3]) of the same molecule?
**A.** Its IC50 is 2.15 µM.

**Q.** What about the Activity (U-87 MG [4]) of the same molecule?
**A.** The Activity was “Active”.

**Q.** What about the Activity (U-87 MG [5]) of the same molecule?
**A.** The Activity was “Active”.

**Q.** And the viability at 5 µM (U-87 MG [6])?
**A.** The viability at 5 µM was 54.7%.

**Q.** What about the IC50 (U-251) of the same molecule?
**A.** Its IC50 is 17.1 µg/mL and 790 nM.

**Q.** What about the IC50 (SH-SY5Y [7]) of the same molecule?
**A.** The IC50 was 3.07 µM.

**Q.** What about the Activity (SH-SY5Y [8]) of the same molecule?
**A.** Its Activity is 30%.

**Q.** What about the Activity (U-87 MG [9]) of the same molecule?
**A.** The Activity was “inactive”.

**Q.** And the Activity (U-87 MG [10])?
**A.** Its Activity is “Active”.

**Q.** And the Activity (U-87 MG [11])?
**A.** Its Activity is “Active”.

**Q.** What about the viability at 5 µM (SH-SY5Y [12]) of the same molecule?
**A.** Its viability at 5 µM is 11.5%.

**Q.** What about the Activity (SH-SY5Y [13]) of the same molecule?
**A.** Its Activity is 40%.

**Q.** What about the Activity (SH-SY5Y [14]) of the same molecule?
**A.** The Activity was under 20%.

**Q.** What about the IC50 (U-87 MG [15]) of the same molecule?
**A.** The IC50 was 5.66 µM.

**Q.** What about the Activity (U-87 MG [16]) of the same molecule?
**A.** Its Activity is “Active”.

**Q.** What about the Activity (U-87 MG [17]) of the same molecule?
**A.** Its Activity is “Active”.

**Q.** And the IC50 (U-87 MG [18])?
**A.** Its IC50 is 4.5 µM.

**Q.** Which results are given for `CC[C@H](C)[C@@H]1NC(=O)[C@H](C)NC(=O)[C@H](C)NC(=O)[C@H](CO)NC(=O)[C@H]([C@@H](C)CC)NC(=O)[C@@H]2CSSC[C@@H]3NC(=O)[C@H](C(C)C)NC(=O)[C@H](CCCCN)NC(=O)[C@H](CO)NC(=O)[C@H](CCCCN)NC(=O)[C@@H]4CSSC[C@H](NC(=O)[C@H](CO)NC(=O)[C@H](CCC(=O)O)NC(=O)CNC(=O)[C@H](CSSC[C@H](NC(=O)CNC1=O)C(=O)N[C@@H](CO)C(=O)N4)NC(=O)[C@@H]1CCCN1C(=O)[C@H]([C@@H](C)CC)NC(=O)CNC(=O)[C@H](CC(N)=O)NC(=O)[C@H](CCCNC(=N)N)NC(=O)[C@H](Cc1ccc(O)cc1)NC3=O)C(=O)N[C@@H](C(C)C)C(=O)N[C@@H](Cc1c[nH]c3ccccc13)C(=O)N[C@@H]([C@@H](C)CC)C(=O)N1CCC[C@H]1C(=O)N2` [CYCLOVIOLACIN O13] (cyclo(AAIGCSCKSKVCYRNGIPCGESCVWIPCIS); disulfide 5-19, 7-23, 12-28)?
**A.** IC50 (SH-SY5Y [3]): 2.15 µM; viability at 5 µM (U-87 MG [6]): 29.7%; IC50 (SH-SY5Y [7]): 3.07 µM; viability at 5 µM (SH-SY5Y [12]): 12.5%; IC50 (U-87 MG [15]): 3.36 µM; IC50 (U-87 MG [18]): 2.57 µM

**Q.** `Cn1nnc2c(C(N)=O)ncn2c1=O` [TEMOZOLOMIDE] was tested. Which IC50 (SH-SY5Y [3]) did it give?
**A.** The IC50 was 393 µM.

**Q.** And the IC50 (SH-SY5Y [7])?
**A.** The IC50 was 513 µM.

**Q.** What about the viability at 100 µM (U-87 MG [19]) of the same molecule?
**A.** Its viability at 100 µM is 85.2%.

**Q.** What about the Activity (U-87 MG [20]) of the same molecule?
**A.** The Activity was 40%.

**Q.** And the Activity (U-87 MG [21])?
**A.** The Activity was 40%.

**Q.** And the viability at 2000 µM (SH-SY5Y [22])?
**A.** Its viability at 2000 µM is 15.5%.

**Q.** And the viability at 10000 µM (U-87 MG [23])?
**A.** Its viability at 10000 µM is 32.4%.

**Q.** And the viability at 2000 µM (U-87 MG [24])?
**A.** The viability at 2000 µM was 57.3%.

**Q.** What about the IC50 (U-87 MG [15]) of the same molecule?
**A.** The IC50 was 3190 µM.

**Q.** And the Activity (U-87 MG [25])?
**A.** Its Activity is 10%.

**Q.** What about the viability at 100 µM (SH-SY5Y [26]) of the same molecule?
**A.** Its viability at 100 µM is 96.6%.

**Q.** And the viability at 500 µM (SH-SY5Y [27])?
**A.** Its viability at 500 µM is 41.5%.

**Q.** And the IC50 (U-87 MG [18])?
**A.** The IC50 was 2900 µM.

**Q.** What about the Activity (U-87 MG [28]) of the same molecule?
**A.** Its Activity is 40%.

Reference: ChEMBL document CHEMBL5046264, “Cyclotides Chemosensitize Glioblastoma Cells to Temozolomide” (J Nat Prod, 2022)
